The values that follow come from US7320996B2, “Indolinone protein kinase inhibitors and cyclooxygenase inhibitors for use in combination therapy for the treatment of cancer” (Sugen, Inc, priority 2001, dated 2008).

T1 sequence (P09619 33-1106): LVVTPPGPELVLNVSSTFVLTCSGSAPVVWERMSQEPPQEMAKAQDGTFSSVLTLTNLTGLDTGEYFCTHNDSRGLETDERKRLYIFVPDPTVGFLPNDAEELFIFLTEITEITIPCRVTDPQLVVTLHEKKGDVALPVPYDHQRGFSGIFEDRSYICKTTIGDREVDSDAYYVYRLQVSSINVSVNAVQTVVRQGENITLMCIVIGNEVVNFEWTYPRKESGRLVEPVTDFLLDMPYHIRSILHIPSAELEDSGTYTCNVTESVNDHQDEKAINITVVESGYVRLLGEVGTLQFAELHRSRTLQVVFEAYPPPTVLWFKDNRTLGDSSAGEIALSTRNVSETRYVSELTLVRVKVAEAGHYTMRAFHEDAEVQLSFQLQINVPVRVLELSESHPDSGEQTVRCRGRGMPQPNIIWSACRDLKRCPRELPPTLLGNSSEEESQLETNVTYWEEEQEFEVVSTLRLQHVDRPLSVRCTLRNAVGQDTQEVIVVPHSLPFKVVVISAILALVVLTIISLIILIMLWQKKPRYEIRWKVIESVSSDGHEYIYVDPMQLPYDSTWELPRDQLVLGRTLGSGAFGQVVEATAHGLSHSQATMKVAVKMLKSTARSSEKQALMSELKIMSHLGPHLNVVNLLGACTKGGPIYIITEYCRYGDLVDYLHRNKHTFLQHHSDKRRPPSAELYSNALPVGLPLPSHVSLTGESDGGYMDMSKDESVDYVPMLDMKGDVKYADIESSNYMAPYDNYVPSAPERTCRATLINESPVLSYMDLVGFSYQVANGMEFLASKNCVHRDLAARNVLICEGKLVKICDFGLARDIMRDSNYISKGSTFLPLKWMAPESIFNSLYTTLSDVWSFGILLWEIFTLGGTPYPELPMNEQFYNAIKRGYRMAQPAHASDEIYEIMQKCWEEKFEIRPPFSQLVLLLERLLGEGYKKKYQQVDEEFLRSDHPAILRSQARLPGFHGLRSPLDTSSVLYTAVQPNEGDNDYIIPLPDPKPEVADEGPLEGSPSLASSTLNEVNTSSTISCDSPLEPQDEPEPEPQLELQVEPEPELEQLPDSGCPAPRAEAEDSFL

One assay addresses T1, PDGFR-β (NIH 3T3 cell lysate) (Homo sapiens, UniProt P09619).
T1 construct: host or cells: NIH 3T3
Briefly: PDGFR bioassay, ELISA. To be noted: read-out: bio PDGF IC50. The assay is classed as biochemical.
Experimental: Corning 96-well Elisa plates • 2. 28D4C10 monoclonal anti-PDGFR antibody (SUGEN, Inc.). • 3. PBS. • 4. TBST Buffer. • 5. Blocking Buffer (same as for EGFR bioassay). • 6. PDGFR-β expressing NIH 3T3 cell lysate (SUGEN, Inc.). • 7. TBS Buffer. • 8. TBS+10% DMSO. • 9. ATP. • 10. MnCl2. • 11. Kinase buffer phosphorylation mix: for 10 ml, mix 250 μl 1M TRIS, 200 μl 5M NaCl, 100 μl 1M MnCl2 and 50 μl 100 mM Triton X-100 in enough dH2O to make 10 ml. • 12. NUNC 96-well V bottom polypropylene plates. • 13. EDTA. • 14. Rabbit polyclonal anti-phosphotyrosine serum (SUGEN, Inc.). • 15. Goat anti-rabbit IgG peroxidase conjugate (Biosource Cat. No. ALI0404). • 16. ABTS. • 17. Hydrogen peroxide, 30% solution. • 18. ABTS/H2O2. • 19. 0.2 M HCl. Procedure: • 1. Coat Corning 96 well ELISA plates with 0.5 μg 28D4C10 in 100 μl PBS per well, store overnight at 4° C. • 2. Remove unbound 28D4C10 from wells by inverting plate to remove liquid. • Wash 1×with dH2O. Pat the plate on a paper towel to remove excess liquid. • 3. Add 150 μl of Blocking Buffer to each well. Incubate for 30 min. at room temperature with shaking. • 4. Wash plate 3×with deionized water, then once with TBST. Pat plate on a paper towel to remove excess liquid and bubbles. • 5. Dilute lysate in HNTG (10 μg lysate/100 μl HNTG). • 6. Add 100 μl of diluted lysate to each well. Shake at room temperature for 60 min. • 7. Wash plates as described in Step 4. • 8. Add 80 μl working kinase buffer mix to ELISA plate containing captured PDGFR. • 9. […] Add 10 μl diluted test compound to ELISA plate. To control wells, add 10 μl TBS+10% DMSO. Incubate with shaking for 30 minutes at room temperature. • 11. Add 10 μl ATP directly to all wells except negative control well (final well volume should be approximately 100 μl with 20 μM ATP in each well.) Incubate 30 minutes with shaking. • 12. Stop reaction by adding 10 μl of EDTA solution to each well. • 13. Wash 4×with deionized water, twice with TBST. • 14. Add 100 μl anti-phosphotyrosine (1:3000 dilution in TBST) per well. Incubate with shaking for 30-45 min. at room temperature. • 15. Wash as in Step 4. • 16. […] Incubate with shaking for 30 min. at room temperature. • 17. Wash as in Step 4. • 18. Add 100 μl of ABTS/H2O2 solution to each well. • 19. Incubate 10 to 30 minutes with shaking. Remove any bubbles. • 20. If necessary stop reaction with the addition of 100 μl 0.2 M HCl per well. • 21.
Turning to `Cc1cc(C(=O)NCCCN2CCCC2)[nH]c1/C=C1\C(=O)Nc2ccc(Br)cc21` [Example 6, 5-(5-Bromo-2-oxo-1,2-dihydroindol-3-ylidenemethyl)-4-methyl-1H-pyrrole-2-carboxylic Acid (3-pyrrolidin-1-yl-propyl)amide], the IC50 was over 100 µM. In the case of `Cc1c(C(=O)NCCCN2CCCC2)[nH]c(/C=C2\C(=O)Nc3ccc(Br)cc32)c1C(=O)c1ccccc1` [Example 24, 4-Benzoyl-5-(5-bromo-2-oxo-1,2-dihydroindol-3-ylidenemethyl)-3-methyl-1H-pyrrole-2-carboxylic Acid (3-pyrrolidin-1-ylpropyl)amide], the IC50 is over 100 µM. Turning to `Cc1c(C(=O)NCCCN2CCCC2)[nH]c(/C=C2\C(=O)Nc3cc(-c4ccccc4)ccc32)c1C(=O)c1ccccc1` [Example 25, 4-Benzoyl-3-methyl-5-(2-oxo-6-phenyl-1,2-dihydroindol-3-ylidenemethyl)-1H-pyrrole-2-carboxylic Acid (3-pyrrolidin-1-ylpropyl)amide], the concentration for half-maximal inhibition (IC50) is over 100 µM. Same read-out and setting: the value for `COc1ccccc1-c1ccc2c(c1)NC(=O)/C2=C\c1[nH]c(C)c(C(=O)NCCN(C)C)c1C` [Example 54, 5-[6-(2-Methoxyphenyl)-2-oxo-1,2-dihydroindol-3-ylidenemethyl]-2,4-dimethyl-1H-pyrrole-3-carboxylic Acid (2-dimethylaminoethyl)amide] was under 0.78 µM.

The target in another assay is T2, HER-2 kinase (EGFr/HER-2 chimera/3T3-C7 cell line) (Homo sapiens, UniProt P04626).
T2 construct: fused on or other part: EGFR extracellular part, stimulated by EGF and captured by the anti-EGFR antibody SUMO1; P00533 (Epidermal growth factor receptor)
T2 sequence (P04626 720-987 limits assumed, change not shown): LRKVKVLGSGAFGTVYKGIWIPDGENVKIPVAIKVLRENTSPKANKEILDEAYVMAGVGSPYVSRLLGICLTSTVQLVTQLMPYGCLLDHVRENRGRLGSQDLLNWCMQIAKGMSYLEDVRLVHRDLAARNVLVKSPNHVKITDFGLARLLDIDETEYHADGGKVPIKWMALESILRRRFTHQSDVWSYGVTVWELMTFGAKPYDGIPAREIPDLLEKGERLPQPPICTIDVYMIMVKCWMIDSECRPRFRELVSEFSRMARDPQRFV
Briefly: Cellular HER-2 kinase assay, whole-cell ELISA. The assay is classed as cell-based. To be noted: read-out: Her2 Kinase IC50.
Experimental: This assay is used to measure HER-2 kinase activity in whole cells in an ELISA format.
Fetal Bovine Serum (FBS, GIBCO Catalog #16000-044), heat inactivated in a water bath for 30 min. at 56° C. • 3. […] PBS. • 9. […] Corning 96-well ELISA Plates. • 12. NUNC 96-well V bottom polypropylene plates. • 13. […] SUMO 1: monoclonal anti-EGFR antibody (SUGEN, Inc.). • 15. TBST Buffer. • 16. Blocking Buffer: 5% Carnation Instant Milk® in PBS. • 17. […] Suspend powder in 100 uL of 10 mM HCl. Add 100 uL 10 mM NaOH. Add 800 uL PBS and transfer to an Eppendorf tube, store at −20° C. until ready to use. • 18. […] EDTA. • 20. Na3VO4. […] Boil in microwave for one minute (solution becomes clear). • Cool to room temperature. Adjust pH to 10. Repeat heating/cooling cycle until pH remains at 10. • 21. 200 mM Na4P2O7. • 22. Rabbit polyclonal antiserum specific for phosphotyrosine (anti-Ptyr antibody, SUGEN, Inc.). • 23. Affinity purified antiserum, goat anti-rabbit IgG antibody, peroxidase conjugate (Biosource Cat #ALI0404). • 24. ABTS Solution. • 25. 30% Hydrogen peroxide solution. • 26. ABTS/H2O2. • 27. 0.2 M HCl. Procedure: • 1. Coat Corning 96 well ELISA plates with SUMO1 at 1.0 ug per well in PBS, 100 ul final volume/well. Store overnight at 4° C. • 2. On day of use, remove coating buffer and wash plate 3 times with dH2O and once with TBST buffer. All washes in this assay should be done in this manner, unless otherwise specified. • 3. Add 100 ul of Blocking Buffer to each well. Incubate plate, with shaking, for 30 min. at room temperature. Just prior to use, wash plate. • 4. Use EGFr/HER-2 chimera/3T3-C7 cell line for this assay. • 5. Choose dishes having 80-90% confluence. Collect cells by trypsinization and centrifuge at 1000 rpm at room temperature for 5 min. • 6. Resuspend cells in starve medium and count with trypan blue. Viability above 90% is required. Seed cells in starve medium at a density of 2,500 cells per well, 90 ul per well, in a 96 well microtiter plate. Incubate seeded cells overnight at 37° under 5% CO2. • 7. Start the assay two days after seeding. • 8. Test compounds are dissolved in 4% DMSO. Samples are then further diluted directly on plates with starve-DMEM. Typically, this dilution will be 1:10 or greater. […] Incubate at 37° C. for 10 min. • 13. Remove test compound, EGF, and DMEM. Wash cells once with PBS. • 14. Transfer HNTG* to cells, 100 ul per well. Place on ice for 5 minutes. • Meanwhile, remove blocking buffer from ELISA plate and wash. • 15. Scrape cells from plate with a micropipettor and homogenize cell material by repeatedly aspirating and dispensing the HNTG* lysis buffer. Transfer lysate to a coated, blocked, washed ELISA plate. Or, use a Costar transfer cartridge to transfer lysate to the plate. • 16. Incubate, with shaking, at room temperature for 1 hr. • 17. Remove lysate, wash. Transfer freshly diluted anti-Ptyr antibody (1:3000 in TBST) to ELISA plate, 100 ul per well. • 18. Incubate, with shaking, at room temperature, for 30 min. • 19. Remove anti-Ptyr antibody, wash. Transfer freshly diluted BIOSOURCE antibody to ELISA plate (1:8000 in TBST, 100 ul per well). • 20. Incubate, with shaking, at room temperature for 30 min. • 21. Remove BIOSOURCE antibody, wash. Transfer freshly prepared ABTS/H2O2 solution to ELISA plate, 100 ul per well. • 22. […] Remove any bubbles. • 23. Stop reaction with the addition of 100 ul of 0.2M HCl per well. • 24.
For the compound `CCN(CC)CCCNC(=O)c1c(C)[nH]c(/C=C2\C(=O)Nc3cccc(C(=O)Nc4ccc(OC)c(Cl)c4)c32)c1C` [Example 69, 3-[4-(3-Diethylaminopropylcarbamoyl)-3,5-dimethyl-1H-pyrrol-2-ylmethylene]-2-oxo-2,3-dihydro-1H-indole-4-carboxylic Acid (3-chloro-4-methoxyphenyl)amide], the IC50 was over 100 µM.

Regarding `Cc1[nH]c(/C=C2\C(=O)Nc3ccc(S(=O)(=O)N(C)C)cc32)c(C)c1C(=O)NCCN1CCCC1` [Example 82, 5-(5-Dimethylsulfamoyl-2-oxo-1,2-dihydroindol-3-ylidenemethyl)-2,4-dimethyl-1H-pyrrole-3-carboxylic Acid (2-pyrrolidin-1-ylethyl)amide], the IC50 is over 100 µM. Turning to `Cc1[nH]c(/C=C2\C(=O)Nc3ccc(S(=O)(=O)Nc4ccccc4)cc32)c(C)c1C(=O)N1CCN(C)CC1` [Example 86, 3-[3,5-Dimethyl-4-(4-methylpiperazine-1-carbonyl)-1H-pyrrol-2-ylmethylene]-2-oxo-2,3-dihydro-1H-indole-5-sulfonic Acid Phenylamide], the IC50 was over 100 µM.

The target of another assay is T3, EGFR (A431 cell lysate) (Homo sapiens, UniProt P00533).
T3 construct: A431 cell lysate (SUGEN, Inc.); host or cells: A431
T3 sequence (P00533 25-1210): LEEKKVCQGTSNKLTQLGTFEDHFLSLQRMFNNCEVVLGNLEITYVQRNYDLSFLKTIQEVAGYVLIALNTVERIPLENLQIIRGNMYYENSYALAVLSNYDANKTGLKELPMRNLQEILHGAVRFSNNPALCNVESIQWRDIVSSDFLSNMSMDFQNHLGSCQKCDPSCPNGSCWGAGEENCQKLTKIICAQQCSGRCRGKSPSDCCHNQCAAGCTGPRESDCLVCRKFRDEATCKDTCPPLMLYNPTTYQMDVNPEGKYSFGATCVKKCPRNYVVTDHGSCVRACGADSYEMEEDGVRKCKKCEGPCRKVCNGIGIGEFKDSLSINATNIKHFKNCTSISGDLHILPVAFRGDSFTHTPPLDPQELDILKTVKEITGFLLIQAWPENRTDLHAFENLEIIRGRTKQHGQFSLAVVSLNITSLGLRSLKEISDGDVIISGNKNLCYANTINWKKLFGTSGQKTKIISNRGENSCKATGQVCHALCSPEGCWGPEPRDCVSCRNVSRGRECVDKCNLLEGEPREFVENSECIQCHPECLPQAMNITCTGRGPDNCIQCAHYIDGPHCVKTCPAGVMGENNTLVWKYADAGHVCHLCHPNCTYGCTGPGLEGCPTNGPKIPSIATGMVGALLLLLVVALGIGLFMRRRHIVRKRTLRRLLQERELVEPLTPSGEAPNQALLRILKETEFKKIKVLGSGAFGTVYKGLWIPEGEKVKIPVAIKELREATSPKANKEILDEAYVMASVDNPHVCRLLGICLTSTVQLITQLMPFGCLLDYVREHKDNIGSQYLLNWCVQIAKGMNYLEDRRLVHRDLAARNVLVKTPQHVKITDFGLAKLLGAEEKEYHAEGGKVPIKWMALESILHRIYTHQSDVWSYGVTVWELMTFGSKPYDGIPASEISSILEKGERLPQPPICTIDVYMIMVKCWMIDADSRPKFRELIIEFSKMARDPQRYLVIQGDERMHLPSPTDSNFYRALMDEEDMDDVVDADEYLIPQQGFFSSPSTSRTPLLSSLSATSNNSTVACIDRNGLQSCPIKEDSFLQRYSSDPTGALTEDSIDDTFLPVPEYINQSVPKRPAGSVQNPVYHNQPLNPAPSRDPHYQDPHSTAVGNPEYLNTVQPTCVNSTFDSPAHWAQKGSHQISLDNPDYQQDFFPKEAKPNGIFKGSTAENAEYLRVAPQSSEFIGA
The assay is described as follows: EGFR bioassay, ELISA. The format is biochemical. The note with it: read-out: bio EGF IC50.
Experimental: This assay is used to the in vitro kinase activity of FGF1-R in an ELISA assay.
Corning 96-well Elisa plates. • 2. SUMOL1 monoclonal anti-EGFR antibody (SUGEN, Inc.). • 3. PBS • 4. TBST Buffer • 5. Blocking Buffer: for 100 ml, mix 5.0 g Carnation Instant Non-fat Milk® with 100 ml of PBS. • 6. A431 cell lysate (SUGEN, Inc.). • 7. TBS Buffer: • 8.
bring to 1 liter total volume with dH2O. • 9. […] This reagent should be made up immediately prior to use and kept on ice. • 10. 1.0 mM MnCl2. • 11. […] Prepare just prior to use, keep on ice. • 12. NUNC 96-well V bottom polypropylene plates. • 13. EDTA. • 14. Rabbit polyclonal anti-phosphotyrosine serum (SUGEN, Inc.). • 15. Goat anti-rabbit IgG peroxidase conjugate (Biosource Cat. No. ALI0404). • 16. ABTS. • 17. 30% Hydrogen peroxide. • 18. ABTS/H2O2 • 19. 0.2 M HCl. Procedure: • 1. Coat Corning 96 well ELISA plates with 0.5 μg SUMO1 in 100 μl PBS per well, store overnight at 4° C. • 2. Remove unbound SUMO1 from wells by inverting plate to remove liquid. Wash 1×with dH2O. Pat the plate on a paper towel to remove excess liquid. • 3. Add 150 μl of Blocking Buffer to each well. Incubate, with shaking, for 30 min. at room temperature. • 4. Wash plate 3×with deionized water, then once with TBST. Pat plate on a paper towel to remove excess liquid and bubbles. • 5. Dilute lysate in PBS (7 μg lysate/100 μl PBS). • 6. Add 100 μl of diluted lysate to each well. Shake at room temperature for 1 hr. • 7. Wash plates as in 4, above. • 8. Add 120 μl TBS to ELISA plate containing captured EGFR. • 9. […] Add 13.5 μl diluted test compound to ELISA plate. To control wells, add 13.5 μl TBS in 10% DMSO. • 11. Incubate, with shaking, for 30 minutes at room temperature. • 12. Add 15 μl phosphorylation mix to all wells except negative control well. Final well volume should be approximately 150 μl with 3 μM ATP/5 mM MnCl2 final concentration in each well. Incubate with shaking for 5 minutes. • 13. Stop reaction by adding 16.5 μl of EDTA solution while shaking. Shake for additional 1 min. • 14. Wash 4×with deionized water, 2×with TBST. • 15. Add 100 μl anti-phosphotyrosine (1:3000 dilution in TBST) per well. Incubate, with shaking, for 30-45 min. at room temperature. • 16. Wash as in 4, above. • 17. […] Incubate with shaking for 30 min. at room temperature. • 18. Wash as in 4, above. • 19. Add 100 μl of ABTS/H2O2 solution to each well. • 20. Incubate 5 to 10 minutes with shaking. Remove any bubbles. • 21. If necessary, stop reaction by adding 100 μl 0.2 M HCl per well. • 22.
As to `COc1ccccc1-c1ccc2c(c1)NC(=O)/C2=C\c1[nH]c(C)c(C(=O)NCCN2CCCC2)c1-c1ccccc1` [Example 43, 5-[6-(2-Methoxyphenyl)-2-oxo-1,2-dihydroindol-3-ylidenemethyl]-2-methyl-4-phenyl-1H-pyrrole-3-carboxylic Acid (2-pyrrolidin-1-ylethyl)amide], the IC50 was over 100 µM. Still for that read-out and setting: the value for `CCN(CC)CCCNC(=O)c1c(C)[nH]c(/C=C2\C(=O)Nc3cc(-c4ccccc4)ccc32)c1C` [Example 68, 2,4-Dimethyl-5-(2-oxo-6-phenyl-1,2-dihydroindol-3-ylidenemethyl)-1H-pyrrole-3-carboxylic Acid (3-diethylaminopropyl)amide] was over 100 µM; that for `CCN(CC)CCCNC(=O)c1c(C)[nH]c(/C=C2\C(=O)Nc3cccc(C(=O)Nc4ccc(OC)c(Cl)c4)c32)c1C` [Example 69, 3-[4-(3-Diethylaminopropylcarbamoyl)-3,5-dimethyl-1H-pyrrol-2-ylmethylene]-2-oxo-2,3-dihydro-1H-indole-4-carboxylic Acid (3-chloro-4-methoxyphenyl)amide] was over 100 µM; that for `CCN(CC)CCNC(=O)c1c(C(C)C)[nH]c(/C=C2\C(=O)Nc3ccc(Br)cc32)c1C(C)C` [Example 71] was over 100 µM.

Take `Cc1[nH]c(/C=C2\C(=O)Nc3ccc(S(=O)(=O)N(C)C)cc32)c(C)c1C(=O)NCCN1CCCC1` [Example 82, 5-(5-Dimethylsulfamoyl-2-oxo-1,2-dihydroindol-3-ylidenemethyl)-2,4-dimethyl-1H-pyrrole-3-carboxylic Acid (2-pyrrolidin-1-ylethyl)amide]: the IC50 is over 100 µM. As for `CCN(CC)CCNC(=O)c1c(C)[nH]c(/C=C2\C(=O)Nc3ccc(S(=O)(=O)N(C)C)cc32)c1C` [Example 87, 5-(5-Dimethylsulfamoyl-2-oxo-1,2-dihydroindol-3-ylidenemethyl)-2,4-dimethyl-1H-pyrrole-3-carboxylic Acid (2-diethylaminoethyl)amide], the concentration for half-maximal inhibition (IC50) was over 100 µM.
